Experimental data: US20100272811A1 (priority 2008, published 2010)
Like-named read-outs stand apart in the source and are kept apart here.

What was measured:
[1] = Pharmacokinetic profile of trospium powder formulations administered to rats via insufflation; format: in vivo, Sprague-Dawley rats; settings: rat, intratracheal insufflation, approx. 200 μg trospium, plasma, mean ± standard error
Protocol: Male Sprague-Dawley rats (weight 400±50 grams) were administered various powder formulations of trospium by insufflation. The rats were divided into four groups of four rats as follows: • Group A—Insufflated intratracheally with Leucine/Trospium/DPPC containing approximately 200 μg Trospium • Group B—Insufflated intratracheally with Leucine/Trospium/NaSaccharin containing approximately 200 μg Trospium • Group C—Insufflated intratracheally with Leucine/Citrate/NaSaccharin/Trospium containing approximately 200 μg Trospium • Group D—Insufflated intratracheally with Leucine/Trospium containing approximately 200 μg Trospium The formulations tested are described in Table 2.
Rats were anesthetized using inhaled Isofluorane. Drug powder was then intratracheally insufflated into each rat. All animals were allowed food and water ad libitum between blood collection time points. Blood samples were collected by a lateral tail vein after anesthesia. A syringe without an anticoagulant was used for blood collection and the whole blood was transferred to tubes containing K2 EDTA (MIRCOTAINER®; MFG# BD365974). The blood samples were processed (the tubes are inverted 15-20 times and centrifuged for 2 minutes at >14,000 g's to separate plasma). The plasma samples prepared in this manner were transferred to labeled plain tubes (MICROTAINER®; MFG# BD5962) and stored frozen at <−70° C. 250 ul of whole blood was obtained for each time point. Sample collection times were pre-insufflation, 2.5, 5.0, 7.5, 10, 15, 30, 60 and 120 minutes after insufflation.
Plasma samples were analyzed for trospium using an Ionspray LC/MS/MS (Liquid Chromatography coupled with Mass Spectrometery). Briefly, 100 ul of standard (trospium standard solutions in rat plasma), control or test samples were added to the wells of a 96-well plate. The trospium standard solutions were prepared by adding 100 ul of 1 ug/ml trospium chloride (in methanol) with rat plasma to yield a nominal concentration of 4000 pg/ml. Standard solutions in rat plasma were prepared as follows:
Controls were prepared by adding 1 ug/ml trospium chloride in methanol to rat plasma to yield concentrations of 2500 pg/ml, 800 pg/ml and 200 pg/ml of internal standard solution (2.5 ng/ml clidinium bromide in water) were added to all wells except those containing blank plasma samples. 20 ul of 50 mM ammonium acetate (pH 9.0) solution and 350 ul acetonitrile were added to all wells and the plate was shaken on an orbital shaker for 1-2 minutes. The plate was centrifuged at 2000×g for 5-7 minutes. The supernatant was removed added onto an Agilent 96-well plate and concentrated to dryness using a Speed Vacuum. The dry sample were then reconstituted with 100 ul of 50:50 methanol:water and analyzed by LC/MS/MS.
Quantitation was performed using a weighted (1/×) linear regression analysis generated from standard samples.

[2] = background statement; cited from earlier work

Structure (SMILES)	solubility (30% ethanol with inline heating at 55° C.)	soluble in water (water at room temperature)	AUC [1] [ng·min/mL]	Cmax [1] [ng/mL]	Tmax [1] [min]	AUC ([1]; male, Sprague-Dawley, inhaled or intranasal, 200 ug, read-out: AUC (converted)) [ng·min/mL]	Cmax ([1]; male, Sprague-Dawley, inhaled or intranasal, 200 ug, read-out: Cmax) [ng/mL]	Tmax ([1]; male, Sprague-Dawley, inhaled or intranasal, 200 ug, read-out: Tmax (converted)) [min]	aqueous solubility [2]
O=C(OC1C[C@H]2CC[C@@H](C1)[N+]21CCCC1)C(O)(c1ccccc1)c1ccccc1.O=C1NS(=O)(=O)c2ccccc21 (stereo partly drawn) [Trospium saccharin complex]	greater than 4 mg/ml	less than 0.4 mg/ml	1102 ± 76.9	43.50 ± 5.32	9.38 ± 1.40				
O=C(O[C@H]1C[C@H]2CC[C@@H](C1)[N+]21CCCC1)C(O)(c1ccccc1)c1ccccc1 [Trospium chloride, endo-3-[(hydroxydiphenyl-acetyl)oxy]spiro[8-azoniabicyclo[3.2.1]octane-8,-1′-pyrrolidinium]chloride, reference compound]						1490	71.2 ± 6.26	6.31	relatively high
